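Briefly, cells in 96-well plates were exposed to five compound concentrations for 48 h, and endpoints were estimated by linear interpolation. At the GI50, growth is halved.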 Calls of active or inactive are those of the source. Cut-off read from the data, not from the text of the source: active = GI50 up to about 1.1 µM and inactive = higher. Where a SMILES comes first, the peptide text is derived from it. [ ]: non-standard residue; d: D form. The star is where a group is joined. Bn2Val = CC(C)[C@@H](C(=O)*)N(Cc1ccccc1)Cc1ccccc1; NHPiperonyl = c1cc2c(cc1CN*)OCO2; NMeV = CN[C@H](C(=O)O)C(C)C; dNMeA = CN[C@H](C)C(=O)O
Columns and labels:
Assay in all cases: NCI tumour cell line growth inhibition, 48 h
HCT-15 = system: HCT-15
MCF7 = system: MCF7
NCI/ADR-RES = system: NCI/ADR-RES
UACC-62 = system: UACC-62
MDA-MB-231 = system: MDA-MB-231
Hs-578T = system: Hs-578T
SF-295 = system: SF-295
NCI-H226 = system: NCI-H226
RPMI-8226 = system: RPMI-8226
HCC 2998 = system: HCC 2998
MDA-MB-435 = system: MDA-MB-435
OVCAR-4 = system: OVCAR-4
SN12C = system: SN12C
U-251 = system: U-251
OVCAR-5 = system: OVCAR-5
SNB-19 = system: SNB-19
NCI-H460 = system: NCI-H460
SK-MEL-2 = system: SK-MEL-2
SK-MEL-28 = system: SK-MEL-28
SW-620 = system: SW-620

| SMILES | GI50 (HCT-15) [µM] | GI50 (MCF7) | GI50 (NCI/ADR-RES) | GI50 (UACC-62) | GI50 (MDA-MB-231) | GI50 (Hs-578T) | GI50 (SF-295) | GI50 (NCI-H226) | GI50 (RPMI-8226) | GI50 (HCC 2998) | GI50 (MDA-MB-435) | GI50 (OVCAR-4) | GI50 (SN12C) | GI50 (U-251) | GI50 (OVCAR-5) | GI50 (SNB-19) | GI50 (NCI-H460) | GI50 (SK-MEL-2) | GI50 (SK-MEL-28) | GI50 (SW-620) |
| --- | --- | --- | --- | --- | --- | --- | --- | --- | --- | --- | --- | --- | --- | --- | --- | --- | --- | --- | --- | --- |
| O=S(=O)(CCCCl)SCCCCl | 23.3 | 19.6 µM (inactive) | 31.9 µM (inactive) | 36.1 µM (inactive) | 29.9 µM (inactive) | 27.8 µM (inactive) | > 64.9 µM (inactive) | > 65.5 µM (inactive) | 21.9 µM (inactive) | > 100 µM (inactive) | 25.8 µM (inactive) | 15.3 µM (inactive) | 25.1 µM (inactive) | 45.9 µM (inactive) | > 64 µM (inactive) | > 95.1 µM (inactive) | 39.4 µM (inactive) | 44.8 µM (inactive) | 39.3 µM (inactive) | 19.1 µM (inactive) |
| CCOC(=O)CC[C@H](N)C(=O)N[C@H](Cc1ccc(N(CCCl)CCCl)cc1)C(=O)OCC | 4.39 | 1.21 µM (inactive) | 4.26 µM (inactive) | 1.51 µM (inactive) | 6.55 µM (inactive) | 2.39 µM (inactive) | 3.21 µM (inactive) | 7.76 µM (inactive) | 7.06 µM (inactive) | 1.2 µM (inactive) | 24.9 µM (inactive) | 5.18 µM (inactive) | 1.79 µM (inactive) | 6.47 µM (inactive) | 5.06 µM (inactive) | 16.1 µM (inactive) | 1.58 µM (inactive) | 12.3 µM (inactive) | 25.8 µM (inactive) | 3.56 µM (inactive) |
| CCC1(CCSC(=N)N)C(=O)NC(=O)NC1=O | > 100 | > 100 µM (inactive) | > 100 µM (inactive) | > 100 µM (inactive) | > 100 µM (inactive) | > 100 µM (inactive) | > 100 µM (inactive) | > 100 µM (inactive) | > 100 µM (inactive) | > 100 µM (inactive) | > 100 µM (inactive) | > 100 µM (inactive) | > 100 µM (inactive) | > 100 µM (inactive) | > 100 µM (inactive) | > 100 µM (inactive) | > 100 µM (inactive) | > 100 µM (inactive) | > 100 µM (inactive) | > 100 µM (inactive) |
| N=c1oc2ccc([N+](=O)[O-])cc2cc1C(=O)Nc1ccccn1 | 44.3 | 12.2 µM (inactive) | 97.3 µM (inactive) | 34.2 µM (inactive) | 21.6 µM (inactive) | 29.1 µM (inactive) | – | 71.9 µM (inactive) | 54.2 µM (inactive) | 91.4 µM (inactive) | 37.6 µM (inactive) | 90.8 µM (inactive) | 72.6 µM (inactive) | 45.5 µM (inactive) | > 100 µM (inactive) | 33.9 µM (inactive) | 69 µM (inactive) | 16.2 µM (inactive) | 28.8 µM (inactive) | 70.3 µM (inactive) |
| O=[N+]([O-])/C=C/c1cn(CCCCCCCCCCCCn2cc(/C=C/[N+](=O)[O-])c3ccccc32)c2ccccc12 | > 100 | > 100 µM (inactive) | > 100 µM (inactive) | > 100 µM (inactive) | > 100 µM (inactive) | > 100 µM (inactive) | – | > 100 µM (inactive) | > 100 µM (inactive) | > 100 µM (inactive) | > 100 µM (inactive) | > 100 µM (inactive) | > 100 µM (inactive) | > 100 µM (inactive) | > 100 µM (inactive) | – | > 100 µM (inactive) | > 100 µM (inactive) | > 100 µM (inactive) | > 100 µM (inactive) |
| CC12CCC(C(=O)O1)C(C)(C)O2 (stereo not drawn) | > 100 | > 100 µM (inactive) | > 100 µM (inactive) | > 100 µM (inactive) | > 100 µM (inactive) | > 100 µM (inactive) | > 100 µM (inactive) | > 100 µM (inactive) | > 100 µM (inactive) | > 100 µM (inactive) | > 100 µM (inactive) | > 100 µM (inactive) | > 100 µM (inactive) | > 100 µM (inactive) | > 100 µM (inactive) | > 100 µM (inactive) | > 100 µM (inactive) | > 100 µM (inactive) | > 100 µM (inactive) | > 100 µM (inactive) |
| C=C1CC2C[C@H](OS(=O)(=O)c3ccc(C)cc3)C(C1)N2C (stereo partly drawn) | > 100 | > 100 µM (inactive) | > 100 µM (inactive) | > 100 µM (inactive) | > 100 µM (inactive) | > 100 µM (inactive) | > 100 µM (inactive) | > 100 µM (inactive) | > 100 µM (inactive) | > 100 µM (inactive) | > 100 µM (inactive) | > 100 µM (inactive) | > 100 µM (inactive) | > 100 µM (inactive) | – | > 100 µM (inactive) | > 100 µM (inactive) | > 100 µM (inactive) | > 100 µM (inactive) | > 100 µM (inactive) |
| CN(C)CC(NC(NCS)C(=O)NCCNc1ccc(NCCNC(=O)C(NCS)NC(CN(C)C)OCCl)c2c1C(=O)c1c(O)ccc(O)c1C2=O)OCCl (stereo not drawn) | 0.13 | 0.01 µM (active) | 1.58 µM (inactive) | 0.0301 µM (active) | 0.0547 µM (active) | 0.243 µM (active) | 0.00518 µM (active) | 0.0585 µM (active) | 0.0016 µM (active) | 0.237 µM (active) | 0.151 µM (active) | 0.502 µM (active) | 0.0311 µM (active) | 0.102 µM (active) | 0.525 µM (active) | 0.0301 µM (active) | < 0.001 µM (active) | 1.45 µM (inactive) | 0.0229 µM (active) | 0.00461 µM (active) |
| COc1cc(Cn2c3c(c4c(CN(C)C)c(O)ccc42)C(=O)c2ccccc2C3=O)cc(OC)c1 | 14 | 15.9 µM (inactive) | 17.6 µM (inactive) | 23.1 µM (inactive) | 17.7 µM (inactive) | 19.1 µM (inactive) | 21.5 µM (inactive) | 33.2 µM (inactive) | 18.5 µM (inactive) | 17.9 µM (inactive) | 18.1 µM (inactive) | 13.9 µM (inactive) | 22.9 µM (inactive) | 14.8 µM (inactive) | 21.7 µM (inactive) | 18.7 µM (inactive) | 17.7 µM (inactive) | 16.3 µM (inactive) | 15.8 µM (inactive) | 18.7 µM (inactive) |
| NCCCn1c(Cl)nc2ccccc21 | > 100 | > 100 µM (inactive) | > 100 µM (inactive) | > 100 µM (inactive) | > 100 µM (inactive) | > 100 µM (inactive) | > 100 µM (inactive) | > 100 µM (inactive) | > 100 µM (inactive) | > 100 µM (inactive) | > 100 µM (inactive) | > 100 µM (inactive) | > 100 µM (inactive) | > 100 µM (inactive) | > 100 µM (inactive) | > 100 µM (inactive) | > 100 µM (inactive) | > 100 µM (inactive) | > 100 µM (inactive) | > 100 µM (inactive) |
| Cc1cc2c(cc1Cl)SC(NNC1=NCCN1)=NS2(=O)=O | > 10 | 0.00248 µM (active) | > 10 µM (inactive) | > 10 µM (inactive) | > 10 µM (inactive) | > 10 µM (inactive) | > 10 µM (inactive) | > 10 µM (inactive) | > 10 µM (inactive) | > 10 µM (inactive) | > 10 µM (inactive) | > 10 µM (inactive) | > 10 µM (inactive) | > 10 µM (inactive) | > 10 µM (inactive) | > 10 µM (inactive) | > 10 µM (inactive) | > 10 µM (inactive) | > 10 µM (inactive) | > 10 µM (inactive) |
| CC(C)[C@H](NC(=O)[C@H](C(C)C)N(Cc1ccccc1)Cc1ccccc1)C(=O)N(C)[C@H](C(=O)N1CCC[C@H]1C(=O)N(C)[C@H](C)C(=O)NCc1ccc2c(c1)OCO2)C(C)C (Bn2Val-V[NMeV]P[dNMeA]-NHPiperonyl) | 3.54 | 2.25 µM (inactive) | 2.91 µM (inactive) | 13 µM (inactive) | 6.56 µM (inactive) | 39.1 µM (inactive) | 4.94 µM (inactive) | 16.8 µM (inactive) | 1.99 µM (inactive) | 3.23 µM (inactive) | 17.2 µM (inactive) | 5.85 µM (inactive) | – | 4.33 µM (inactive) | 4.38 µM (inactive) | 18.2 µM (inactive) | 3.93 µM (inactive) | 5.97 µM (inactive) | 22.4 µM (inactive) | 4.49 µM (inactive) |
| Cc1c(CCOC=O)c(=O)[nH]c2nncn12 | > 100 | > 100 µM (inactive) | > 100 µM (inactive) | > 100 µM (inactive) | > 100 µM (inactive) | > 100 µM (inactive) | > 100 µM (inactive) | > 100 µM (inactive) | > 100 µM (inactive) | > 100 µM (inactive) | > 100 µM (inactive) | > 100 µM (inactive) | > 100 µM (inactive) | > 100 µM (inactive) | > 100 µM (inactive) | > 100 µM (inactive) | > 100 µM (inactive) | – | > 100 µM (inactive) | > 100 µM (inactive) |
| O=[N+]([O-])C1(C2([N+](=O)[O-])CCCC2)CCCC1 | > 100 | > 100 µM (inactive) | > 100 µM (inactive) | > 100 µM (inactive) | > 100 µM (inactive) | > 100 µM (inactive) | – | > 100 µM (inactive) | > 100 µM (inactive) | > 100 µM (inactive) | > 100 µM (inactive) | > 100 µM (inactive) | > 100 µM (inactive) | > 100 µM (inactive) | > 100 µM (inactive) | > 100 µM (inactive) | > 100 µM (inactive) | > 100 µM (inactive) | > 100 µM (inactive) | > 100 µM (inactive) |

From ChEMBL document CHEMBL1201862, “PubChem BioAssay data set” (2004)
